Experimental data reported in patent publication US11964981B1, “Substituted pyrimido[4,5-b]indoles as CK2 inhibitors” (KING FAISAL UNIVERSITY, priority 2023, dated 2024).

Experiments:
[1] = system: A375 (melanoma); test: In vitro cytotoxic activity MTT assay, A375; assay type: cell-based; settings: Homo sapiens, A-375; A375 (melanoma) cells, exposed for 96 hours; read-out: IC50, concentration of compound eliciting a 50% inhibition of cell proliferation
Method: (§1) Compounds 1-16 were screened for their in vitro cytotoxic activity utilizing a 3-(4,5-dimethyl-thiazol-2-yl)-2,5-diphenyltetrazolium bromide (MTT) assay against selected cancer human cell lines consisting of PC3 (prostate), HCT116 (colon), A375 (melanoma), H1299 (lung), MIAPaCa-2 (pancreas), HL60 (leukemia), MCF7 (breast), MDA-MB-231 (breast) (T. Mosmann, J. Immunol. Meth., 1983, 65, 55-63). The cells were cultured at 37° C. in RMPI1640 medium supplemented with 10% fetal bovine serum, 50 IU/mL penicillin, and 50 μg/mL streptomycin in a 5% CO2 incubator. All cells were sub-cultured 3 times/week by trypsinisation. Viable cells were seeded and allowed to adhere for 12 h before a test drug was added in 96-well plates at an initial density of 1.0×10^5 cells/mL. Tumor cell lines were separately exposed to various concentrations of the tested compounds followed by incubation at a temperature of 37° C. during 96 h inside a medium of fresh RMPI 1640. Cells were subsequently incubated at 37° C. using MTT at 0.5 mg/mL during 4 hours. After removal of supernatant, formazan crystals were dissolved in isopropanol and the optical density was measured at 570 nm. CX-4945 was used as a positive control.

[2] = system: HL60 (leukemia); test: In vitro cytotoxic activity MTT assay, HL60; assay type: cell-based; settings: Homo sapiens, HL-60; HL60 (leukemia) cells, exposed for 96 hours; read-out: IC50, concentration of compound eliciting a 50% inhibition of cell proliferation
Method: as §1

[3] = system: MCF7 (breast); test: In vitro cytotoxic activity MTT assay, MCF7; assay type: cell-based; settings: Homo sapiens; MCF7 (breast) cells, exposed for 96 hours; read-out: IC50, concentration of compound eliciting a 50% inhibition of cell proliferation
Method: as §1

[4] = system: MDA-MB-231 (breast); test: In vitro cytotoxic activity MTT assay, MDA-MB-231; assay type: cell-based; settings: Homo sapiens; MDA-MB-231 (breast) cells, exposed for 96 hours; read-out: IC50, concentration of compound eliciting a 50% inhibition of cell proliferation
Method: as §1

[5] = system: HCT116 (colon); test: In vitro cytotoxic activity MTT assay, HCT116; assay type: cell-based; settings: Homo sapiens, HCT-116; HCT116 (colon) cells, exposed for 96 hours; read-out: IC50, concentration of compound eliciting a 50% inhibition of cell proliferation
Method: as §1

[6] = system: PC3 (prostate); test: In vitro cytotoxic activity MTT assay, PC3; assay type: cell-based; settings: Homo sapiens, Prostate cell; PC3 (prostate) cells, exposed for 96 hours; read-out: IC50, concentration of compound eliciting a 50% inhibition of cell proliferation
Method: as §1

[7] = system: H1299 (lung); test: In vitro cytotoxic activity MTT assay, H1299; assay type: cell-based; settings: Homo sapiens, NCI-H1299; H1299 (lung) cells, exposed for 96 hours; read-out: IC50, concentration of compound eliciting a 50% inhibition of cell proliferation
Method: as §1

[8] = molecular target: T1, recombinant human CK2 (Homo sapiens, UniProt P68400); test: CK2 Kinase Assay (radiometric, 33P-ATP); assay type: biochemical; settings: final ATP concentration 15 μM, 10 min at 30° C., eight concentrations; read-out: protein kinase CK2 IC50
T1 construct: purchased Millipore
Method: CK2 Kinase Assay was conducted using the protocol as described in Pierre F. et al; J. Med. Chem. 2011, 54, 635-654. The tested compounds in aqueous solution were added at a volume of 10 μL to a reaction mixture comprising 10 μL of assay dilution buffer (ADB; 20 mM MOPS, pH 7.2, 25 mM β-glycerol phosphate, 5 mM EGTA, 1 mM sodium orthovanadate, and 1 mM dithiothreitol), 10 μL of substrate peptide (RRRDDDSDDD, dissolved in ADB at a concentration of 1 mM), 10 μL of recombinant human CK2 (RROP-holoenzyme, 25 ng dissolved in ADB; Millipore). Reactions were initiated by the addition of 10 μL of ATP solution (90% 75 mMMgCl2, 75 μM ATP (final ATP concentration:15 μM) dissolved in ADB; 10% [γ-33P] ATP (stock 1 mCi/100 μL; 3000 Ci/mmol (Perkin-Elmer) and maintained for 10 min at 30° C. The reactions were quenched with 100 μL of 0.75% phosphoric acid and then transferred to and filtered through a phosphor cellulose filter plate (Millipore). After washing each well five times with 0.75% phosphoric acid, the plate was dried under vacuum for 5 min and, following the addition of 15 μL of scintillation fluid to each well, the residual radioactivity was measured using a Wallac luminescence counter. The IC50 values were derived from eight concentrations of test inhibitors.

[9] = system: MIAPaCa-2 (pancreas); test: In vitro cytotoxic activity MTT assay, MIAPaCa-2; assay type: cell-based; settings: Homo sapiens, MIA PaCa-2; MIAPaCa-2 (pancreas) cells, exposed for 96 hours; read-out: IC50, concentration of compound eliciting a 50% inhibition of cell proliferation
Method: as §1

T1 sequence (P68400 whole entry): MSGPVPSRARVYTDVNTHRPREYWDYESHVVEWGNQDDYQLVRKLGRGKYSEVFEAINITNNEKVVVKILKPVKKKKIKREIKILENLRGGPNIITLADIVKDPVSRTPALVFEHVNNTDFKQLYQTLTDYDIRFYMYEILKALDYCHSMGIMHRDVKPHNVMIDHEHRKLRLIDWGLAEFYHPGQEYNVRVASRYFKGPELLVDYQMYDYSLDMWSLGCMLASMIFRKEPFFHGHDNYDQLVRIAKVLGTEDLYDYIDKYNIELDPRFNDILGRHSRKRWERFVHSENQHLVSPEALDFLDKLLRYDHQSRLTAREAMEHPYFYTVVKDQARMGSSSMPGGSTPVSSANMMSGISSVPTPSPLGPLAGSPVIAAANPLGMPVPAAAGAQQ
T1 sequence (P67870 whole entry partner): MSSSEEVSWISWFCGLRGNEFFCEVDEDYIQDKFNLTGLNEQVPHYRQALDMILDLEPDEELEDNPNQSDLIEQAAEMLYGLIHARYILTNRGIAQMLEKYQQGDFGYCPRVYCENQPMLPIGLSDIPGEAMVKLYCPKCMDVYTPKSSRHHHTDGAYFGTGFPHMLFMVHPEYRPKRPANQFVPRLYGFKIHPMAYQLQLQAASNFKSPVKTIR

Work on `O=C(O)c1ccc2[nH]c3ncnc(Nc4cccc(Cl)c4)c3c2c1` [Example 1, 4-((3-chlorophenyl)amino)-9H-pyrimido[4,5-b]indole-6-carboxylic acid] yielded an IC50 [1] of 3300 nM, an IC50 [2] of 3000 nM and an IC50 [3] of 4600 nM. For the same molecule, the IC50 [4] was 2900 nM, the IC50 [5] was 1800 nM and the IC50 [6] was 1400 nM. It also gave an IC50 [7] of 4500 nM, an IC50 [8] of 68 nM and an IC50 [9] of 900 nM.
